Laboratory results published in article PMC6928678, “Simplified Head-to-Tail Cyclic Polypeptides as Biomaterial-Associated Antimicrobials with Endotoxin Neutralizing and Anti-Inflammatory Capabilities” (International Journal of Molecular Sciences, 2019).
Values after ≈ are worked out from the molar mass of the structure shown. Where a SMILES comes first, the peptide text is derived from it. [ ]: non-standard residue; d: D form. Orn = NCCC[C@H](N)C(=O)O

Assays:
S. aureus 25923 = experiment: microbe, parasite or virus in culture; format: cell-based, Staphylococcus aureus; details: 25923, 20 h
Protocol: (§1) The test strains, including Gram-negative E. coli ATCC25922, E. coli ATCC 1005, S. typhimurium C7731, P. aeruginosa ATCC 27853, S. Typhimurium 14028, Gram-positive S. aureus ATCC29213, S. aureus ATCC 25923, S. epidermidis ATCC 12228 and S. aureus 43300, were obtained from the School of Veterinary Medicine, Northeast Agricultural University (Harbin, China).
(§2) Briefly, the bacteria were incubated overnight at 37 °C with constant shaking at 220 rpm, then were transferred to new MH broth (MHB) medium until they reached the logarithmic phase of growth. The bacteria were then diluted to 10^5 (CFU)/mL in MHB. The peptides were dissolved and diluted in 0.01% acetic acid and 0.2% bovine serum albumin (BSA) at various concentrations (0.5–128 μM) in each well of sterile 96-well plates and incubated for 20 h at 37 °C. […] The test was repeated three times.

S. aureus 29213 = experiment: microbe, parasite or virus in culture; format: cell-based, Staphylococcus aureus; details: 29213, 20 h
Protocol: as §1, §2

MRSA43300 = experiment: microbe, parasite or virus in culture; format: cell-based, Methicillin-resistant Staphylococcus aureus; details: 20 h
Protocol: as §1, §2

P. aeruginosa 27853 = experiment: microbe, parasite or virus in culture; format: cell-based; details: 27853, 20 h; read-out: MIC
Protocol: as §1, §2

S. epidermidis 12228 = experiment: microbe, parasite or virus in culture; format: cell-based; details: 12228, 20 h
Protocol: as §1, §2

S. typhimurium 14028 = experiment: microbe, parasite or virus in culture; format: cell-based; details: 14028, 20 h
Protocol: as §1, §2

S. typhimurium 7731 = experiment: microbe, parasite or virus in culture; format: cell-based; details: 7731, 20 h
Protocol: as §1, §2

[1] = system: gram-negative strains tested; experiment: Geometric mean of MICs, gram-negative strains; format: cell-based; details: 5 gram-negative strains; >128 apparently counted as 256; read-out: nGM (–), geometric mean of the MICs against gram-negative strains
Protocol: as §2

[2] = system: all the 9 bacteria tested; experiment: Geometric mean of MICs, all 9 bacteria; format: cell-based; details: for GM MIC (range of Gram-negative and Gram-positive geometric means): Table 2; for tGM, geometric mean of the MICs against all the 9 bacteria: all 9 bacteria tested
Protocol: as §2

RAW264.7 cells = experiment: MTT cytotoxicity assay; format: cell-based, mouse; details: 0.5–128 μM, 24 h
Protocol: Figure 2 (A) Hemolytic activity of the engineered peptides against human red blood cells (hRBCs). The hRBCs were incubated with equal amounts of the respective peptides dissolved in PBS for 1 h at 37 °C. (B) Cytotoxicity of the engineered peptides against RAW264.7. The cells were incubated with various concentrations (0.5–128 μM) of peptides for 24 h, and the cell viability was determined by the MTT assay. Data shown are three independent experiments.
The MTT (3-[4, 5 dimethylthiozol-2-yl]-2,5-diphenyltetrazolium bromide) assay was conducted according to a previously reported MTT colorimetric method, and is used as a cell proliferation and cell viability assay. Mouse macrophage RAW264.7 cell lines stored in liquid nitrogen were recovered and cultured in a fully humidified atmosphere with 95% air and 5% CO2 at 37 °C. The cells were then diluted, added to 96-well plates at a final concentration of 2 × 10^5 cells/well, and cultured in RPMI 1640 medium at 37 °C overnight. The next day, peptides were added to the cell cultures at final concentrations of 0.5–128 μM, and untreated cell cultures serving as controls were cultured for 20–24 h in the same conditions. […] 150 μL of DMSO was added to dissolve the formazan crystals, and the OD was measured using a microplate reader (Tecan GENios F129004, Salzburg, Austria) at 570 nm. […]

[3] = system: lipopolysaccharide (LPS, derived from E. coli 055: B5); experiment: BODIPY-TR-cadaverine displacement assay (LPS binding)
Protocol: Figure 3 (A) The combining ability of OIR3 and gramicidin S (GS; 0.5 μM, 1 μM, 2 μM, […], 8 μM, 16 μM and 32 μM) with lipopolysaccharide (LPS). (B) SPR spectroscopy of the interaction kinetics of the peptides and LPS. The peptides were immobilized on a CM5 sensor chip as a ligand, and LPS was diluted in a series of concentrations (3.125, 6.25, 12.5, 25 and 50 μg/mL). Data shown are three independent experiments.
The BODIPY-TR-cadaverine (BC) displacement assay was previously used to quantify the binding affinities of test compounds to LPS [61]. The fluorescent dye BC is quenched by binding to LPS, causing its fluorescence to disappear. When the antimicrobial peptide is added, if the binding of the peptide to LPS is stronger, BODIPY-TR-cadaverine will be released and the fluorescence restored. Briefly, in a 96-well plate, an equal volume with a different concentration (0.5–64 μM) of peptide was added to a mixture (100 μL) of LPS (25 μg/mL) and BC (2.5 μg/mL) in Tris buffer (pH 7.4), and the background fluorescence was recorded (excitation wavelength 580 nm, emission wavelength 620 nm). The changes in fluorescence were recorded using a Tecan Infinite M200 PRO (Tecan, San Jose, CA, USA); polymyxin B was used as a positive control. Each test was performed independently, in triplicate.

[4] = system: TNF-α production in RAW264.7 cells; experiment: LPS-stimulated TNF-α production (ELISA); format: cell-based, mouse
Protocol: Figure 11 The inhibitory effects of OIR3, IR3, DIR3 and GS on LPS-stimulated TNF-α production in RAW264.7 cells. The levels of TNF-α in the […] were determined by ELISA using a commercial kit for mouse TNF-α. Data shown are the mean ± SD of three independent experiments.
LPS-activated inflammatory responses are always accompanied by the production of inflammatory cytokines, such as tumor necrosis factor-alpha (TNF-α). Briefly, 2 × 10^5 cells/well RAW264.7 cells were plated in 96-well plates and stimulated with LPS (100 ng/mL) in the absence or presence of the peptides (1–32 μM) for 18 h at 37 °C. The levels of TNF-α were determined using an ELISA kit (Boster, Wuhan, China) in accordance with the manufacturer’s instructions. TNF-α was measured by determining the absorbance at 540 nm.

SMILES | MIC (S. aureus 25923) | MIC (S. aureus 29213) | MIC (MRSA43300) | MIC (P. aeruginosa 27853) | MIC (S. epidermidis 12228) | MIC (S. typhimurium 14028) | MIC (S. typhimurium 7731) | MIC [1] | GM MIC (range of Gram-negative and Gram-positive geometric means) [2] | tGM, geometric mean of the MICs against all the 9 bacteria [2] | toxicity towards mammalian cells (RAW264.7) (RAW264.7 cells) | combining ability with LPS ([3]; all concentrations tested (0.5–32 μM)) | LPS-binding activity ([3]; 2 μM peptide, BODIPY-TR-cadaverine displacement, LPS 25 μg/mL, Tris buffer pH 7.4) | LPS neutralized (LPS-binding activity) ([3]; 4 μM peptide, BODIPY-TR-cadaverine displacement, LPS 25 μg/mL, Tris buffer pH 7.4) | inhibition of LPS-stimulated TNF-α expression [4]
CC(C)C[C@@H]1NC(=O)[C@H](CCCN)NC(=O)[C@H](C(C)C)NC(=O)[C@@H]2CCCN2C(=O)[C@@H](Cc2ccccc2)NC(=O)[C@H](CC(C)C)NC(=O)[C@H](CCCN)NC(=O)[C@H](C(C)C)NC(=O)[C@@H]2CCCN2C(=O)[C@@H](Cc2ccccc2)NC1=O [GS, gramicidin S, reference compound] (cyclo(V[Orn]L[dF]PV[Orn]L[dF]P)) | 2 µM (≈ 2.28 µg/mL) | 2 µM (≈ 2.28 µg/mL) | 2 µM (≈ 2.28 µg/mL) | 4 µM (≈ 4.57 µg/mL) | 2 µM (≈ 2.28 µg/mL) | 16 µM (≈ 18.3 µg/mL) | 8 µM (≈ 9.13 µg/mL) | 6.1 µM (≈ 6.96 µg/mL) | 2 to 6.1 µM | 3.7 µM | highly toxic | relatively low | – | – | –
CC[C@H](C)[C@@H]1NC(=O)[C@H](CCCNC(=N)N)NC(=O)[C@H]([C@@H](C)CC)NC(=O)[C@@H]2CCCN2C(=O)[C@H](CCCNC(=N)N)NC(=O)[C@H]([C@@H](C)CC)NC(=O)[C@H](CCCNC(=N)N)NC(=O)[C@H]([C@@H](C)CC)NC(=O)[C@H](CCCNC(=N)N)NC(=O)[C@H]([C@@H](C)CC)NC(=O)[C@@H]2CCCN2C(=O)[C@H](CCCNC(=N)N)NC(=O)[C@H]([C@@H](C)CC)NC(=O)[C@H](CCCNC(=N)N)NC1=O [OIR3] (cyclo(IRIRIRPIRIRIRP)) | 4 µM (≈ 7.24 µg/mL) | 4 µM (≈ 7.24 µg/mL) | 4 µM (≈ 7.24 µg/mL) | 8 µM (≈ 14.5 µg/mL) | 4 µM (≈ 7.24 µg/mL) | 4 µM (≈ 7.24 µg/mL) | 4 µM (≈ 7.24 µg/mL) | 3.5 µM (≈ 6.34 µg/mL) | 3.5 to 4.0 µM | 3.7 µM | – | – | 81% | 98% | more strongly inhibited
